The subject of the assay is Septoria tritici (ATCC 26517). The assay can be described thus: Minimum Inhibitory Concentration (MIC) vs. Septoria tritici. Type of assay: cell-based. The settings on record: Zymoseptoria tritici, ATCC26517, 168 h; 50% reduction in growth of S. tritici; 22° C., seven days; read-out: Septoria Rating (MIC). As for the experimental part:
C. Minimum Inhibitory Concentration (MIC) vs. Septoria tritici Compounds were assessed for their ability to inhibit the growth of a common strain of the fungal plant pathogen Septoria tritici (ATCC 26517) using a procedure based on a Clinical and Laboratory Standards Institute (CLSI) microdilution assay protocol for filamentous fungi. Stock solutions of the test compounds and standards were prepared in DMSO at 6400 μg/mL. Each stock solution was used to prepare a 2-fold dilution series ranging from 16 to 0.016 μg/mL (total of 11 compound concentrations) in RPMI-1640 (Roswell Park Memorial Institute) medium containing 3-(N-morpholino)propanesulfonic acid (MOPS) buffer and 2% DMSO. A 100 μL aliquot of the dilutions was added to columns 1 (16 μg/mL compound) through 11 (0.016 μg/mL compound) of a 96-well microtiter plate. This format was replicated in a second row of the microtiter plate. Thus, each microtiter plate could include 11 concentrations of four test or control compounds replicated twice. A 100 μL aliquot of RPMI-1640/MOPS/2% DMSO medium was added to column 12 (no compound control) of the microtiter plate. A fresh culture of S. tritici was used to prepare a solution of approximately 5×10^4 colony-forming units per milliliter (cfu/mL) in RPMI/MOPS medium without DMSO. A 100 μL aliquot of this solution was added to all 96 wells in the microtiter plate. […] The assay plates were incubated at 22° C. for seven days in the dark without shaking. […] In each case of Table 3, the Septoria rating scale is as follows: […]

The structures appear in SMILES notation. In brackets after ≈: the same amount, converted by molar mass. Bounds are passed on as bounds.

A word on the MIC: it is the lowest concentration that inhibits growth of the organism. `OC(Cn1ncnn1)(c1ccc(F)cc1F)C(F)(F)c1ccc(OCc2cc(F)cc(F)c2)cn1` (stereo not shown) [Compound 36, 1-(5-((3,5-Difluorobenzyl)oxy)pyridin-2-yl)-2-(2,4-difluorophenyl)-1,1-difluoro-3-(2H-tetrazol-2-yl)propan-2-ol]: the MIC was over 4 µg/mL.

For `N#CCOc1ccc(C(F)(F)C(O)(Cn2cnnn2)c2ccc(F)cc2F)nc1` (stereo not shown) [Compound 29, 2-((6-(2-(2,4-Difluorophenyl)-1,1-difluoro-2-hydroxy-3-(1H-tetrazol-1-yl)propyl)pyridin-3-yl)oxy)acetonitrile], the MIC lay in the range of 1.5 to 4 µg/mL (≈ 3.67 to 9.8 µM).

As to `N#Cc1ccc(COc2ccc(C(F)(F)C(O)(Cn3ncnn3)c3ccc(Cl)cc3F)nc2)cc1` (stereo not shown) [Compound 56, 4-(((6-(2-(4-Chloro-2-fluorophenyl)-1,1-difluoro-2-hydroxy-3-(2H-tetrazol-2-yl)propyl)pyridin-3-yl)oxy)methyl)benzonitrile], the MIC was in the range of 1.5 to 4 µg/mL (≈ 2.99 to 7.99 µM).

On to `OC(Cn1ncnn1)(c1ccc(F)cc1F)C(F)(F)c1ccc(OCc2ccccc2)cn1` (stereo not shown) [Compound 31, 1-(5-(Benzyloxy)pyridin-2-yl)-2-(2,4-difluorophenyl)-1,1-difluoro-3-(2H-tetrazol-2-yl)propan-2-ol], for which the MIC was over 4 µg/mL.

Regarding `CC(C)COc1ccc(C(F)(F)C(O)(Cn2ncnn2)c2ccc(Cl)cc2F)nc1` (stereo not shown) [Compound 70, 2-(4-Chloro-2-fluorophenyl)-1,1-difluoro-1-(5-isobutoxypyridin-2-yl)-3-(2H-tetrazol-2-yl)propan-2-ol], the MIC was over 4 µg/mL.

In the case of `N#Cc1ccc(Oc2ccc(C(F)(F)C(O)(Cn3cnnn3)c3ccc(F)cc3F)nc2)cn1` (stereo not shown) [Compound 112, 5-((6-(2-(2,4-difluorophenyl)-1,1-difluoro-2-hydroxy-3-(1H-tetrazol-1-yl)propyl)pyridin-3-yl)oxy)picolinonitrile], the MIC was at most 0.5 µg/mL.

Regarding `OC(Cn1cnnn1)(c1ccc(F)cc1F)C(F)(F)c1ccc(Oc2nc3cc(Cl)ccc3s2)cn1` (stereo not shown) [Compound 109, 1-(5-((5-chlorobenzo[d]thiazol-2-yl)oxy)pyridin-2-yl)-2-(2,4-difluorophenyl)-1,1-difluoro-3-(1H-tetrazol-1-yl)propan-2-ol], the MIC is at most 0.5 µg/mL.

Turning to `OC(Cn1cnnn1)(c1ccc(F)cc1F)C(F)(F)c1ccc(OCc2ccc(F)cc2)cn1` (stereo not shown) [Compound 19, 2-(2,4-Difluorophenyl)-1,1-difluoro-1-(5-((4-fluorobenzyl)oxy)pyridin-2-yl)-3-(1H-tetrazol-1-yl)propan-2-ol], the MIC is 0.5 to 1.5 µg/mL (≈ 1.05 to 3.14 µM).

With `OC(Cn1cnnn1)(c1ccc(F)cc1F)C(F)(F)c1ccc(OCc2ccc(Cl)cc2)cn1` (stereo not shown) [Compound 4, 1-(5-(4-Chlorobenzyloxy)pyridin-2-yl)-2-(2,4-difluorophenyl)-1,1-difluoro-3-(1H-tetrazol-1-yl)propan-2-ol], the MIC was at most 0.5 µg/mL.

In the case of `CC(Oc1ccc(C(F)(F)C(O)(Cn2ncnn2)c2ccc(F)cc2F)nc1)C(F)(F)F` (stereo not shown) [Compound 48, 2-(2,4-Difluorophenyl)-1,1-difluoro-3-(2H-tetrazol-2-yl)-1-(5-((1,1,1-trifluoropropan-2-yl)oxy)pyridin-2-yl)propan-2-ol], the MIC lay within 0.5 to 1.5 µg/mL (≈ 1.07 to 3.22 µM).

On to `N#Cc1cccc(COc2ccc(C(F)(F)C(O)(Cn3ncnn3)c3ccc(F)cc3F)nc2)c1` (stereo not shown) [Compound 53, 3-(((6-(2-(2,4-Difluorophenyl)-1,1-difluoro-2-hydroxy-3-(2H-tetrazol-2-yl)propyl)pyridin-3-yl)oxy)methyl)benzonitrile], for which the MIC is over 4 µg/mL.

Consider `N#Cc1ccc(COc2ccc(C(F)(F)C(O)(Cn3ncnn3)c3ccc(F)cc3F)nc2)s1` (stereo not shown) [Compound 74, 5-(((6-(2-(2,4-Difluorophenyl)-1,1-difluoro-2-hydroxy-3-(2H-tetrazol-2-yl)propyl)pyridin-3-yl)oxy)methyl)thiophene-2-carbonitrile], for which the MIC was over 4 µg/mL.

In the case of `N#Cc1ccc(COc2ccc(C(F)(F)C(O)(Cn3ncnn3)c3ccc(F)cc3F)nc2)c(F)c1` (stereo not shown) [Compound 58, 4-(((6-(2-(2,4-Difluorophenyl)-1,1-difluoro-2-hydroxy-3-(2H-tetrazol-2-yl)propyl)pyridin-3-yl)oxy)methyl)-3-fluorobenzonitrile], the minimal inhibitory concentration (MIC) was in the range of 1.5 to 4 µg/mL (≈ 2.99 to 7.96 µM).

On to `OC(Cn1cnnn1)(c1ccc(F)cc1F)C(F)(F)c1ccc(Oc2ccc3ccccc3n2)cn1` (stereo not shown) [Compound 108, 2-(2,4-difluorophenyl)-1,1-difluoro-1-(5-(quinolin-2-yloxy)pyridin-2-yl)-3-(1H-tetrazol-1-yl)propan-2-ol], for which the MIC was at most 0.5 µg/mL.

As to `OC(Cn1ncnn1)(c1ccc(F)cc1F)C(F)(F)c1ccc(OCc2ccccn2)cn1` (stereo not shown) [Compound 38, 2-(2,4-Difluorophenyl)-1,1-difluoro-1-(5-(pyridin-2-ylmethoxy)pyridin-2-yl)-3-(2H-tetrazol-2-yl)propan-2-ol], the MIC is over 4 µg/mL.

In the case of `OC(Cn1cnnn1)(c1ccc(F)cc1F)C(F)(F)c1cc(OCc2ccc(F)cc2F)ccn1` (stereo not shown) [Compound 13, 1-(4-((2,4-Difluorobenzyl)oxy)pyridin-2-yl)-2-(2,4-difluorophenyl)-1,1-difluoro-3-(1H-tetrazol-1-yl)propan-2-ol], the minimal inhibitory concentration (MIC) was 0.5 to 1.5 µg/mL (≈ 1.01 to 3.03 µM).

Take `CC#CCOc1ccc(C(F)(F)C(O)(Cn2ncnn2)c2ccc(F)cc2F)nc1` (stereo not shown) [Compound 33, 1-(5-(But-2-yn-1-yloxy)pyridin-2-yl)-2-(2,4-difluorophenyl)-1,1-difluoro-3-(2H-tetrazol-2-yl)propan-2-ol]: the MIC is over 4 µg/mL.

Regarding `N#Cc1cc(COc2ccc(C(F)(F)C(O)(Cn3ncnn3)c3ccc(F)cc3F)nc2)ccc1F` (stereo not shown) [Compound 66, 5-(((6-(2-(2,4-Difluorophenyl)-1,1-difluoro-2-hydroxy-3-(2H-tetrazol-2-yl)propyl)pyridin-3-yl)oxy)methyl)-2-fluorobenzonitrile], the minimum inhibitory concentration (MIC) is over 4 µg/mL.

On to `N#Cc1ccc(CSc2ccc(C(F)(F)C(O)(Cn3ncnn3)c3ccc(F)cc3F)nc2)c(F)c1` (stereo not shown) [Compound 16, 4-(((6-(2-(2,4-Difluorophenyl)-1,1-difluoro-2-hydroxy-3-(2H-tetrazol-2-yl)propyl)pyridin-3-yl)thio)methyl)-3-fluorobenzonitrile], for which the MIC lay within 1.5 to 4 µg/mL (≈ 2.89 to 7.71 µM).

Regarding `N#Cc1ccc(Oc2ccc(C(F)(F)C(O)(Cn3ncnn3)c3ccc(Cl)cc3F)nc2)cc1` (stereo not shown) [Compound 80, 4-((6-(2-(4-Chloro-2-fluorophenyl)-1,1-difluoro-2-hydroxy-3-(2H-tetrazol-2-yl)propyl)pyridin-3-yl)oxy)benzonitrile], the MIC was in the range of 1.5 to 4 µg/mL (≈ 3.08 to 8.22 µM).

With `C=COc1ccc(C(F)(F)C(O)(Cn2cnnn2)c2ccc(F)cc2F)nc1` (stereo not shown) [Compound 14, 2-(2,4-Difluorophenyl)-1,1-difluoro-3-(1H-tetrazol-1-yl)-1-(5-(vinyloxy)pyridin-2-yl)propan-2-ol], the MIC lay in the range of 1.5 to 4 µg/mL (≈ 3.79 to 10.1 µM).

For `OC(Cn1ccnn1)(c1ccc(F)cc1F)C(F)(F)c1ccc(OCc2cccc(F)c2F)cn1` (stereo not shown) [Compound 44, 1-(5-((2,3-Difluorobenzyl)oxy)pyridin-2-yl)-2-(2,4-difluorophenyl)-1,1-difluoro-3-(1H-1,2,3-triazol-1-yl)propan-2-ol], the minimal inhibitory concentration (MIC) was in the range of 1.5 to 4 µg/mL (≈ 3.03 to 8.09 µM).

On to `N#Cc1ccc(Oc2ccc(C(F)(F)C(O)(Cn3ncnn3)c3ccc(Cl)cc3F)nc2)cc1F` (stereo not shown) [Compound 82, 4-((6-(2-(4-Chloro-2-fluorophenyl)-1,1-difluoro-2-hydroxy-3-(2H-tetrazol-2-yl)propyl)pyridin-3-yl)oxy)-2-fluorobenzonitrile], for which the MIC is over 4 µg/mL.

`OC(Cn1ncnn1)(c1ccc(F)cc1F)C(F)(F)c1ccc(OCC2CC2)cn1` (stereo not shown) [Compound 40, 1-(5-(Cyclopropylmethoxy)pyridin-2-yl)-2-(2,4-difluorophenyl)-1,1-difluoro-3-(2H-tetrazol-2-yl)propan-2-ol]: the minimum inhibitory concentration (MIC) was over 4 µg/mL.

Regarding `N#Cc1cccc(COc2ccc(C(F)(F)C(O)(Cn3ncnn3)c3ccc(F)cc3F)nc2)c1F` (stereo not shown) [Compound 68, 3-(((6-(2-(2,4-Difluorophenyl)-1,1-difluoro-2-hydroxy-3-(2H-tetrazol-2-yl)propyl)pyridin-3-yl)oxy)methyl)-2-fluorobenzonitrile], the MIC lay within 1.5 to 4 µg/mL (≈ 2.99 to 7.96 µM).

As to `OC(Cn1ncnn1)(c1ccc(Cl)cc1F)C(F)(F)c1ccc(OCC(F)(F)F)cn1` (stereo not shown) [Compound 72, 2-(4-Chloro-2-fluorophenyl)-1,1-difluoro-3-(2H-tetrazol-2-yl)-1-(5-(2,2,2-trifluoroethoxy)pyridin-2-yl)propan-2-ol], the MIC was over 4 µg/mL.

Regarding `N#Cc1ccc(Oc2ccc(C(F)(F)C(O)(Cn3ncnn3)c3ccc(F)cc3F)nc2)c(F)c1` (stereo not shown) [Compound 90, 4-((6-(2-(2,4-Difluorophenyl)-1,1-difluoro-2-hydroxy-3-(2H-tetrazol-2-yl)propyl)pyridin-3-yl)oxy)-3-fluorobenzonitrile], the MIC lay in the range of 1.5 to 4 µg/mL (≈ 3.07 to 8.19 µM).

`N#Cc1ccc(COc2ccc(C(F)(F)C(O)(Cn3ncnn3)c3ccc(Cl)cc3F)nc2)nc1` (stereo not shown) [Compound 62, 6-(((6-(2-(4-Chloro-2-fluorophenyl)-1,1-difluoro-2-hydroxy-3-(2H-tetrazol-2-yl)propyl)pyridin-3-yl)oxy)methyl)nicotinonitrile]: the MIC was 1.5 to 4 µg/mL (≈ 2.99 to 7.97 µM).

(Values after patent US8748461B2, “Metalloenzyme inhibitor compounds” (Viamet Pharmaceuticals, Inc., priority 2011, dated 2014).)
